Experimental data published in patent US9527851B2, “Pyrrole six-membered heteroaryl ring derivative, preparation method thereof, and medicinal uses thereof” (Jiangsu Hengrui Medicine Co., Ltd., priority 2011, dated 2016).

How the values were obtained:
JAK1 kinase = JAK1 kinase (Homo sapiens (Human), UniProt P23458); assay: Assay for inhibiting JAK1 kinase (in vitro kinase assay, HRP anti-phosphotyrosine antibody/TMB absorbance); type: biochemical; conditions: 20 μM ATP, 50 minutes at room temperature; read-out: IC50 (JAK1/Bio)
Experimental: In vitro activity of compounds of the present invention for inhibiting JAK1 kinase was determined by the following method.
IC50 values of test compounds was calculated from the data of the test compounds in inhibiting the activity of JAK1 kinase at different concentrations.

[1] = Pharmacokinetics assay in rats, intragastric administration, plasma by LC/MS/MS; type: in vivo, Sprague-Dawley (SD) rats; conditions: SD rats, 10 mg/kg
Experimental: Rats were used as test animals. […] The pharmacokinetic behavior of the compounds of the present invention was studied and evaluated in rats.
56 Healthy adult Sprague-Dawley (SD) rats, half male and half female, purchased from SINO-BRITSH SIPPR/BK LAB.
The appropriate amount of test compounds were weighed and mixed with 1.0 mL of dimethyl sulfoxide to prepare a 1.0 mg/mL suspension.
After an overnight fast, SD rats were administered intragastrically at a dose of 10.0 mg/kg and an administration volume of 10 mL/kg.
The plasma samples were stored at −20° C. The rats were fed 2 hours after administration.
Content determination of the test compounds in rat plasma after intragastrically administering at different concentrations: 50 μL of rat plasmas taken at various time points after administration were mixed with 50 μL of internal standard solution and 100 μL of methanol and mixed for 3 minutes by a vortexer. The mixture was centrifuged for 10 minutes at 13,500 rpm. 10 μL of the supernatant was taken from the plasma sample and analyzed by LC-MS/MS.
Pharmacokinetic Parameters of the compounds of the present invention were shown as follows: […]

Sequence of JAK1 kinase (P23458 whole entry): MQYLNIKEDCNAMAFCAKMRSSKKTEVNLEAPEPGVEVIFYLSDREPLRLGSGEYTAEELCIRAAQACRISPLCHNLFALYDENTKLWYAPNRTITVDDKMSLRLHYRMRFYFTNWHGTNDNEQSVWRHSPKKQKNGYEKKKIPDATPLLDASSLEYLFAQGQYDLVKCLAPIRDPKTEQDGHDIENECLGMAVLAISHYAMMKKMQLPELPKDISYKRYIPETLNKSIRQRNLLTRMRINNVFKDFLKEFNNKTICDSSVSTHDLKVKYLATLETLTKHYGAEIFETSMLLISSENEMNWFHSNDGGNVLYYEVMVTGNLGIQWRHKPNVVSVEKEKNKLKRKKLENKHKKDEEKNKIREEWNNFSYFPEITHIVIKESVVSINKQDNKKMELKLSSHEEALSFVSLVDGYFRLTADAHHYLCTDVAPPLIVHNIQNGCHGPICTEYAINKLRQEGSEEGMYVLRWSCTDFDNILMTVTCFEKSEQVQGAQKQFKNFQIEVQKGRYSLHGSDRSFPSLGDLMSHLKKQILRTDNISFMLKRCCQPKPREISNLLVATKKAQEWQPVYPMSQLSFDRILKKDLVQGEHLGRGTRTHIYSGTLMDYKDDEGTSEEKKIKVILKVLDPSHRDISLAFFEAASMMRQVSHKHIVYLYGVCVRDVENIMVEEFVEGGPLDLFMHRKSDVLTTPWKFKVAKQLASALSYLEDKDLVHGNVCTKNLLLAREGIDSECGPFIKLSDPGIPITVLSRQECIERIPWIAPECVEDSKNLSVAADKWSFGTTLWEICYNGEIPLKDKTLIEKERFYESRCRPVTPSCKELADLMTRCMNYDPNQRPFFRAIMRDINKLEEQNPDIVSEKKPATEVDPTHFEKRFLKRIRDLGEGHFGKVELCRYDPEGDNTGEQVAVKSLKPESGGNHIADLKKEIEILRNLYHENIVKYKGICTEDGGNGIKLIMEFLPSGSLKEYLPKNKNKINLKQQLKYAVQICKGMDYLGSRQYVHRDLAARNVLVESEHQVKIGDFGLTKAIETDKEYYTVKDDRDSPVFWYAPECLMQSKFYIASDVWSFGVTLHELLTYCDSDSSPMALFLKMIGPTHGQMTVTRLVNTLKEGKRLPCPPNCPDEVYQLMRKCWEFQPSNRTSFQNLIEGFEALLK

Question: With `CN(c1ncnc2[nH]ccc12)[C@H]1C[C@@H]2CN(C(=O)OC(C)(C)C)C[C@@H]2C1` [Example 5, (3aR,5S,6aS)-tert-butyl 5-(methyl(7H-pyrrolo[2,3-d]pyrimidin-4-yl)amino)hexahydro cyclopenta[c]pyrrole-2(1H)-carboxylate] as the molecule, how does the IC50 (JAK1 kinase) read?
Answer: The IC50 was 30 nM.

Question: For `CN(c1ncnc2[nH]ccc12)[C@H]1C[C@@H]2CN(C(=O)CC#N)C[C@@H]2C1` [Example 8, 3-((3aR,5S,6aS)-5-(Methyl(7H-pyrrolo[2,3-d]pyrimidin-4-yl)amino)hexahydrocyclopenta[c]pyrrol-2(1H)-yl)-3-oxopropanenitrile], which IC50 (JAK1 kinase) is on record?
Answer: The IC50 was 32 nM.

Question: For `CC(=O)N1C[C@H]2C[C@H](N(C)c3ncnc4[nH]ccc34)C[C@H]2C1` [Example 11, 1-((3aR,5S,6aS)-5-(Methyl(7H-pyrrolo[2,3-d]pyrimidin-4-yl)amino)hexahydrocyclopenta[c]pyrrol-2(1H)-yl)ethanone], which IC50 (JAK1 kinase) is on record?
Answer: Its IC50 is 33 nM.

Question: With `CN(c1ncnc2[nH]ccc12)[C@H]1C[C@@H]2CN(C(=O)C3CC3)C[C@@H]2C1` [Example 13, Cyclopropyl((3aR,5S,6aS)-5-(methyl(7H-pyrrolo[2,3-d]pyrimidin-4-yl)amino)hexahydrocyclopenta[c]pyrrol-2(1H)-yl)methanone] as the molecule, how does the IC50 (JAK1 kinase) read?
Answer: The IC50 was 30 nM.

Question: Which IC50 (JAK1 kinase) does the source give for `CN(c1ncnc2[nH]ccc12)[C@H]1C[C@@H]2CN(S(=O)(=O)C3CC3)C[C@@H]2C1` [Example 15, N-((3aR,5S,6aS)-2-(Cyclopropylsulfonyl)octahydrocyclopenta[c]pyrrol-5-yl)-N-methyl-7H-pyrrolo[2,3-d]pyrimidin-4-amine] here?
Answer: The IC50 was 80 nM.

Question: With `COCC(=O)N1C[C@H]2C[C@H](N(C)c3ncnc4[nH]ccc34)C[C@H]2C1` [Example 18, 2-Methoxy-1-((3aR,5S,6aS)-5-(methyl(7H-pyrrolo[2,3-d]pyrimidin-4-yl)amino)hexahydrocyclopenta[c]pyrrol-2(1H)-yl)ethanone] as the molecule, how does the IC50 (JAK1 kinase) read?
Answer: The IC50 was 49 nM.

Question: For `C[C@@H](O)C(=O)N1C[C@H]2C[C@H](N(C)c3ncnc4[nH]ccc34)C[C@H]2C1` [Example 19, (R)-2-Hydroxy-1-((3aR,5S,6aS)-5-(methyl(7H-pyrrolo[2,3-d]pyrimidin-4-yl)amino)hexahydrocyclopenta[c]pyrrol-2(1H)-yl)propan-1-one], which IC50 (JAK1 kinase) is on record?
Answer: Its IC50 is 48 nM.

Question: What does the source list for `CN(c1ncnc2[nH]ccc12)[C@H]1C[C@@H]2CN(C(=O)Nc3nc(OCC(C)(C)O)ns3)C[C@@H]2C1` [Example 99, (3aR,5S,6aS)-N-(3-(2-hydroxy-2-methylpropoxy)-1,2,4-thiadiazol-5-yl)-5-(methyl(7H-pyrrolo[2,3-d]pyrimidin-4-yl)amino)hexahydrocyclopenta[c]pyrrole-2(1H)-carboxamide]?
Answer: Vd/F ([1]; both sexes, Sprague-Dawley, rat, plasma, po, read-out: Apparent Distribution Volume Vz/F): 2.76 ± 1.53 L/kg; AUC ([1]; both sexes, Sprague-Dawley, rat, plasma, po, read-out: Area Under Curve AUC): 14900 ± 10400 ng·h/mL; CL/F ([1]; both sexes, Sprague-Dawley, rat, plasma, po, read-out: Clearance CL/F): 18.3 ± 14.2 mL/min/kg; half-life ([1]; both sexes, Sprague-Dawley, rat, plasma, po, read-out: Half-Life t½ (converted)): 2.1 ± 0.73 h; MRT ([1]; both sexes, Sprague-Dawley, rat, plasma, po, read-out: Mean Residence Time MRT): 3.81 ± 0.82 h; Cmax ([1]; both sexes, Sprague-Dawley, rat, plasma, po, read-out: Plasma Conc. Cmax): 2670 ± 1450 ng/mL

Question: For `CCc1nsc(NC(=O)N2C[C@H]3C[C@H](N(C)c4ncnc5[nH]ccc45)C[C@H]3C2)n1` [Example 121, (3aR,5S,6aS)-N-(3-ethyl-1,2,4-thiadiazol-5-yl)-5-(methyl(7H-pyrrolo[2,3-d]pyrimidin-4-yl)amino)hexahydrocyclopenta[c]pyrrole-2(1H)-carboxamide], which “Apparent Distribution Volume Vz/F” value [1] is on record?
Answer: The value was 7.203 ± 8.113 L/kg.

Question: And the “Area Under Curve AUC” value [1]?
Answer: The value was 9617 ± 7909 ng·h/mL.

Question: What about the “Clearance CL/F” value [1] of the same molecule?
Answer: The value was 31.9 ± 26.9 mL/min/kg.

Question: And the “Mean Residence Time MRT” value [1]?
Answer: The value was 3.40 ± 0.91 h.

Question: And the “Plasma Conc. Cmax” value [1]?
Answer: Its value is 2071 ± 1473 ng/mL.

Question: With `CN(c1ncnc2[nH]ccc12)[C@H]1C[C@@H]2CN(C(=O)Nc3nc(C4CC4)ns3)C[C@@H]2C1` [Example 125, (3aR,5S,6aS)-N-(3-cyclopropyl-1,2,4-thiadiazol-5-yl)-5-(methyl(7H-pyrrolo[2,3-d]pyrimidin-4-yl)amino)hexahydrocyclopenta[c]pyrrole-2(1H)-carboxamide] as the molecule, how does the “Apparent Distribution Volume Vz/F” value [1] read?
Answer: Its value is 18.063 ± 20.748 L/kg.

Question: And the “Area Under Curve AUC” value [1]?
Answer: The value was 5997 ± 4741 ng·h/mL.

Question: And the “Clearance CL/F” value [1]?
Answer: Its value is 46.1 ± 35.6 mL/min/kg.

Question: And the “Plasma Conc. Cmax” value [1]?
Answer: The value was 1061 ± 677 ng/mL.
